IC50 data for one molecule are collected here from patent US20260216207A1, “7-CARBONYLSTAUROSPORINE DERIVATIVE, PREPARATION METHOD THEREFOR, AND USE THEREOF” (HANGZHOU KEXING BIOCHEM. CO., LTD., priority 2023, published 2026).

Type in all cases: biochemical
One assay addresses TRKA (Homo sapiens, UniProt P04629). Description: HTRF KinEASE kinase assay, TRKA (kinase selectivity). The conditions noted are these: HTRF KinEASE kit, 3 duplicate wells; read-out: TRKA IC50. The procedure: (§1) Inhibitory activities against PIM-1, TRKA, TRKB, FLT3, PKCδ, PKCε, PKCη, PAK4, PLK1, ROCK2, and IKKβ kinases were all determined using an HTRF®KinEASE™ kinase assay kit based on a time-resolved fluorescence technology. 7-carbonylstaurosporine (7OSTA) and TP-3654 were used as positive controls, and 3 duplicate wells were set in parallel. […] A signal ratio was calculated as F2/F1×10000, and then an IC50 value was calculated using Graphpad Prism 8 software.

The target in the next assay is T1, FLT3 (Homo sapiens, UniProt P36888).
T1 sequence (P36888 27-993): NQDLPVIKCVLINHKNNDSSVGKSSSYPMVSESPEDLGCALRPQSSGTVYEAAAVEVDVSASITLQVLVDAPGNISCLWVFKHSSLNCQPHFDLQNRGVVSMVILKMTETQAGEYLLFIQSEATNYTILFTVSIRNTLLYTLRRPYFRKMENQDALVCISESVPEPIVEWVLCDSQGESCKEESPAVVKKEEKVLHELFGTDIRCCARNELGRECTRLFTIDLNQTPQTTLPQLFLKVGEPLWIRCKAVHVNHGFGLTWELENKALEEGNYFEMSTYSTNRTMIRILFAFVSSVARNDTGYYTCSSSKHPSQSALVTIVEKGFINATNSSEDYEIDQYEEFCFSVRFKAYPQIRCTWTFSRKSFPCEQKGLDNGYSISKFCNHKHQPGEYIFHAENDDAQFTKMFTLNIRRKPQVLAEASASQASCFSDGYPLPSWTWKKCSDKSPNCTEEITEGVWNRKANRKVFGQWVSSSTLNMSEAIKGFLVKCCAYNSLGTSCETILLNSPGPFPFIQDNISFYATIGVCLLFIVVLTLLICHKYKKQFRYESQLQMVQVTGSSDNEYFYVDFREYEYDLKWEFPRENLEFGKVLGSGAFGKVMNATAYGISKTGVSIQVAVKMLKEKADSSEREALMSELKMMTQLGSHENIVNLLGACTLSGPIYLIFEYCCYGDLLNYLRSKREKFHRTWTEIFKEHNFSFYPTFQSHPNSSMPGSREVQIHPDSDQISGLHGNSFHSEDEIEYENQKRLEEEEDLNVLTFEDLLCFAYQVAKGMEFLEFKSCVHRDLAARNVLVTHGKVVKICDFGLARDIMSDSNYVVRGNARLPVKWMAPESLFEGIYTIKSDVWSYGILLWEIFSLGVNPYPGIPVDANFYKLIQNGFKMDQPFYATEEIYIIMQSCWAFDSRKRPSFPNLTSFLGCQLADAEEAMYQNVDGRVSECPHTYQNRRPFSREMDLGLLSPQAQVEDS
Description: HTRF KinEASE kinase assay, FLT3 (kinase selectivity). Conditions: HTRF KinEASE kit, 3 duplicate wells; read-out: FLT3 IC50. The procedure:
as §1

Another assay concerns the target PKCδ (Homo sapiens, UniProt Q05655). As to the kind of experiment: HTRF KinEASE kinase assay, PKCδ (kinase selectivity). The conditions noted are these: HTRF KinEASE kit, 3 duplicate wells; read-out: PKCδ IC50. On the procedure:
as §1

A further assay concerns the target PAK4 (Homo sapiens, UniProt O96013). Description: HTRF KinEASE kinase assay, PAK4 (kinase selectivity). Conditions: HTRF KinEASE kit, 3 duplicate wells; read-out: PAK4 IC50. The procedure:
as §1

Another assay addresses ROCK2 (Homo sapiens, UniProt O75116). As to the kind of experiment: HTRF KinEASE kinase assay, ROCK2 (kinase selectivity). The conditions noted are these: HTRF KinEASE kit, 3 duplicate wells; read-out: ROCK2 IC50. On the procedure: as §1
Another assay has as its target T2, IKKβ (Homo sapiens, UniProt O14920).
T2 sequence (O14920 1-756): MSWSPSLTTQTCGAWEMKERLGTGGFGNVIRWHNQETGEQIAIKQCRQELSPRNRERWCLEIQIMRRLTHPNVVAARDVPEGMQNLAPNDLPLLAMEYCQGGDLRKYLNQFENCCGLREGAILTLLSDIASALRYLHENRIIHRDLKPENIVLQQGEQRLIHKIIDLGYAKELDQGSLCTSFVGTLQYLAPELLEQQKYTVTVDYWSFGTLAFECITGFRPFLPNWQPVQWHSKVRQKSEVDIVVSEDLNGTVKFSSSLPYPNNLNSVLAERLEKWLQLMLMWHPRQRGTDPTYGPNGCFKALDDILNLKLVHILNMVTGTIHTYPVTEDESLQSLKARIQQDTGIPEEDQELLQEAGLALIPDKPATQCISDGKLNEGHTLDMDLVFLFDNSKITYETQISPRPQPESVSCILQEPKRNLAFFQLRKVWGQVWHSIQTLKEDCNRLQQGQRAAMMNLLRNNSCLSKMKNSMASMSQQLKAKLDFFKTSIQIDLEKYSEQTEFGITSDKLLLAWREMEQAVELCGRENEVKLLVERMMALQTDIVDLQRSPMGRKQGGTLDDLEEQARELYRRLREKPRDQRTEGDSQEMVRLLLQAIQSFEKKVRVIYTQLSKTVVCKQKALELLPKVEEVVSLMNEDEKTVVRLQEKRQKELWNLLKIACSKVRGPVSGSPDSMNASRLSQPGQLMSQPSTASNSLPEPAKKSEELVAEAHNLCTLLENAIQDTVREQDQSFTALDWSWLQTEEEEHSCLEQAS
As to the kind of experiment: HTRF KinEASE kinase assay, IKKβ (kinase selectivity). The conditions noted are these: HTRF KinEASE kit, 3 duplicate wells; read-out: IKKβ IC50. On the procedure:
as §1

Chain of PKCδ (Q05655 whole entry): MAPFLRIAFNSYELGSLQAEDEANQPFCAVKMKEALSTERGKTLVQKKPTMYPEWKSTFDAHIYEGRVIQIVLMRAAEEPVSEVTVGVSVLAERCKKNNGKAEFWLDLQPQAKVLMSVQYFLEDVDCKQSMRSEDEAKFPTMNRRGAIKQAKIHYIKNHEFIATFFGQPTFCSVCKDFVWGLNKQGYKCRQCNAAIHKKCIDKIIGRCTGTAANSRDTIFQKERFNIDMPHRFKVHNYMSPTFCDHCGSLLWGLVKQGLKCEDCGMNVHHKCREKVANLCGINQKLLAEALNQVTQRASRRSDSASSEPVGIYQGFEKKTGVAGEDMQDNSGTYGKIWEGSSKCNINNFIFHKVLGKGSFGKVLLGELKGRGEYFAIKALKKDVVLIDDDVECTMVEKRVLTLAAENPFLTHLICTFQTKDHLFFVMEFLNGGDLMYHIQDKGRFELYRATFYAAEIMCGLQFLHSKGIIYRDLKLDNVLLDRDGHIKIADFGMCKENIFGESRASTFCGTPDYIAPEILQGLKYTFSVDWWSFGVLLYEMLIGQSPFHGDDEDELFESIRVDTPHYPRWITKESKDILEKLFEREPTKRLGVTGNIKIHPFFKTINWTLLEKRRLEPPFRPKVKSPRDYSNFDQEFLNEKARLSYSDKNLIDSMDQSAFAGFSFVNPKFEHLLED
Chain of TRKA (P04629 33-796, species assumed): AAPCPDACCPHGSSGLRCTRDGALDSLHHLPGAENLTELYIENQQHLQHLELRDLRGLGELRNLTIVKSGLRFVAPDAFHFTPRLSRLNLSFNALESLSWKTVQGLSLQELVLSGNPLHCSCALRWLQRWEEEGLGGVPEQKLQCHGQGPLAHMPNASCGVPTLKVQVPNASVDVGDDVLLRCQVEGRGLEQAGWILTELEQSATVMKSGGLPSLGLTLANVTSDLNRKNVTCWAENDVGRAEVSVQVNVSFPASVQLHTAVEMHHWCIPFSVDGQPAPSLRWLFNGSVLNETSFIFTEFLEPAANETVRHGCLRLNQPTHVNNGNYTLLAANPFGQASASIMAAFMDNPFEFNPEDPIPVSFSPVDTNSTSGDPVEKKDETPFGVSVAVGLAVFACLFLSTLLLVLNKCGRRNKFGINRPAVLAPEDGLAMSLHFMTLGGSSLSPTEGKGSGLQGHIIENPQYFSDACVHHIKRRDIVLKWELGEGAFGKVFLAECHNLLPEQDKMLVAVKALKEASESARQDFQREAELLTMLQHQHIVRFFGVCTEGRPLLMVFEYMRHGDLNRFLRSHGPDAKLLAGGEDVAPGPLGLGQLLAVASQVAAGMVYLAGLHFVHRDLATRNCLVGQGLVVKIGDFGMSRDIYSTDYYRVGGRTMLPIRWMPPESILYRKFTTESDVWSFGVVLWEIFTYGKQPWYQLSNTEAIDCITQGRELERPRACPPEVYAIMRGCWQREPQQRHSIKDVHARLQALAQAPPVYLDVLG
Chain of ROCK2 (O75116 whole entry, species assumed): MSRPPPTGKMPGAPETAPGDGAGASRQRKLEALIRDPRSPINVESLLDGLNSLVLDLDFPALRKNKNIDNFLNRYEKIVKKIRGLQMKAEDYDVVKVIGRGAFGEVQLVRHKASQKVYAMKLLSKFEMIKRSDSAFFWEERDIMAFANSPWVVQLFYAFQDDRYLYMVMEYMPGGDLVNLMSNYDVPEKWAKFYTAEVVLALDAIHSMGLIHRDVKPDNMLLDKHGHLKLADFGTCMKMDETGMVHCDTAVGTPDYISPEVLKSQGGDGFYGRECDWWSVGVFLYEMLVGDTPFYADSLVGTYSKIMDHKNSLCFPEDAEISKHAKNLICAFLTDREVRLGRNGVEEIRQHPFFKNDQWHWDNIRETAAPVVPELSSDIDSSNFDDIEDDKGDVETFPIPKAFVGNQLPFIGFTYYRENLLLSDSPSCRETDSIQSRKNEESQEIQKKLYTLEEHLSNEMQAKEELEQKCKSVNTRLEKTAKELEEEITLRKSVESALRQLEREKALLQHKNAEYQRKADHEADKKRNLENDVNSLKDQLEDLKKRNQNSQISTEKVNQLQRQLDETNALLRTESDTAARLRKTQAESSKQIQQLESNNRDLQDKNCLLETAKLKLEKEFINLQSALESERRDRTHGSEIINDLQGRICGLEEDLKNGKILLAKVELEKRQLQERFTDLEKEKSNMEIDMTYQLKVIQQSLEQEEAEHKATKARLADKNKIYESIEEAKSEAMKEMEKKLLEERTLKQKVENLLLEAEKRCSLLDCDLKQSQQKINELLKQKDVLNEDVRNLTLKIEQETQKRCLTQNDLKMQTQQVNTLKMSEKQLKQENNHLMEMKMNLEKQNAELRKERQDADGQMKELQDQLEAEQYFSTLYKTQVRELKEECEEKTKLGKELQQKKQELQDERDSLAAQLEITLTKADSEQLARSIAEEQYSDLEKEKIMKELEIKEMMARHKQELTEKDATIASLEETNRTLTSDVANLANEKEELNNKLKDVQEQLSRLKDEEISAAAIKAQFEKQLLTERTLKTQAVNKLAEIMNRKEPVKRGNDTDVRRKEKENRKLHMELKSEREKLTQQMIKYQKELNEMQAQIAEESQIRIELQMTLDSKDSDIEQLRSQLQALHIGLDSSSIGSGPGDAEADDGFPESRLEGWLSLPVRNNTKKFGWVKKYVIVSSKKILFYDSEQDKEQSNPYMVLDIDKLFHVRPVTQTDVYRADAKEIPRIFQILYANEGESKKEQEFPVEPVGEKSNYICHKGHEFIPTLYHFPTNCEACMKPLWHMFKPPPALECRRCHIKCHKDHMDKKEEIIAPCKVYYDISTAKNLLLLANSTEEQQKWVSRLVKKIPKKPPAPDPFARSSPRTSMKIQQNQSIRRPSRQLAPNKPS
Chain of PAK4 (O96013 whole entry, species assumed): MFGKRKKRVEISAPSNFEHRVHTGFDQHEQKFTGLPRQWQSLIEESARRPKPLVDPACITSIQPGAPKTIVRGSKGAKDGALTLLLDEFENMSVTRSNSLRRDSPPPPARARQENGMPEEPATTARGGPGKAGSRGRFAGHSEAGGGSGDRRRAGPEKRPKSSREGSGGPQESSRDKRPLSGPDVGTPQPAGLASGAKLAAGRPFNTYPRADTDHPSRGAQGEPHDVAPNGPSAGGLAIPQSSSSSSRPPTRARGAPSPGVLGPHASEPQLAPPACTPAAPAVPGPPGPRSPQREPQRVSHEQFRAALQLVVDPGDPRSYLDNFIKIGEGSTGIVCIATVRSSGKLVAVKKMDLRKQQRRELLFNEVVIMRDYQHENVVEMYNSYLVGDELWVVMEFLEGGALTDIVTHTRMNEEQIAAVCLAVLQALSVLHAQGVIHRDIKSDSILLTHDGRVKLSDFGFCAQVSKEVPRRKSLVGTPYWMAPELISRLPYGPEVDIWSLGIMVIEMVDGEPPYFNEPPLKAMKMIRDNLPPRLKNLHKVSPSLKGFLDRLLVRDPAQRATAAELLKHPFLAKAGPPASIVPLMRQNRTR

As for `CO[C@@H]1[C@H](N(C)C(=O)CCC(=O)NO)C[C@H]2O[C@]1(C)n1c3ccccc3c3c4c(c5c6ccccc6n2c5c31)C(=O)NC4=O` [Compound 17], the IC50 is 4 nM on TRKA; 5.3 nM on FLT3; 10.4 nM at PKCδ; 240 nM at PAK4; 562 nM on ROCK2; more than 1000 nM at IKKβ.
